PMC6514978, “Synthesis, Antibacterial Activities, Mode of Action and Acute Toxicity Studies of New Oxazolidinone-Fluoroquinolone Hybrids” (Molecules, 2019)
Values after ≈ are worked out from the molar mass of the structure shown.

Key:
E. coli DNA gyrase = target: T1, E. coli DNA gyrase (Escherichia coli, UniProt P0AES4+P0AES6); test: DNA gyrase supercoiling assay; assay type: biochemical; settings: supercoiling of relaxed pBR322, 37 °C, 30 min
T1 construct: purchased Inspiralis Co., Ltd; host or cells: E. coli
Method: The E. coli DNA Gyrase Supercoiling Assay Kit (Inspiralis Co., Ltd.) was used to investigate the inhibition activities of hybrids OBP-4 and OBP-5 against DNA gyrase. DNA gyrase is prepared from E. coli. One unit of DNA gyrase can convert 0.5 μg of relaxed pBR322 to the supercoiled forms in 30 min. […] The reaction was terminated by adding 30 μL of STEB and 30 μL of chloroform/isoamyl alcohol (v:v, 24:1), and then the products were resolved by gel electrophoresis on 1% (w/v) agarose gel at 80 V for 2 h in the absence of ethidium bromide. The gels were stained with ethidium bromide (1 μg/mL in distilled water) for 15 min, and destained (5–10 min) in distilled water. DNA bands were visualized with UV light in Bio-Rad® Chemidoc xrs and analyzed by using Quantity One software (Version 4.6, Bio-Rad).

E. coli Topo IV = target: T2, E. coli Topo IV (Escherichia coli, UniProt P0AFI2+P20083); test: Topo IV relaxation assay; assay type: biochemical; settings: relaxation of supercoiled pBR322, 37 °C, 30 min
T2 construct: purchased Inspiralis Co., Ltd; host or cells: overexpressing E. coli
Method: The E. coli Topo IV Relaxation Assay Kit (Inspiralis Co., Ltd.) was used to evaluate the effects of hybrids OBP-4 and OBP-5 against topo IV. Topo IV was prepared by the overexpressing E. coli. One unit of topo IV will relax 0.4 μg of supercoiled pBR322. In the assay, the final reaction mixtures (30 μL) consisted of 0.4 μg supercoiled pBR322 and one unit DNA Topo IV with or without compounds in assay buffer with 40 mM Hepes-KOH (pH 7.6), 100 mM potassium glutamate, 10 mM magnesium acetate, 10 mM DTT, 1 mM ATP and 50 μg/mL albumin, and then was incubated at 37 °C for 30 min. The reaction was terminated by adding 30 μL of STEB and 30 μL of chloroform/isoamyl alcohol (v:v, 24:1) after incubation for 30 min. Then, the reaction products were processed as described in a DNA gyrase supercoiling assay.

Gram-positive isolates = test: MIC summary, clinical isolates; assay type: cell-based; settings: for MIC90: Gram-positive clinical isolates, read-out: MIC90 values for Gram-positive isolates (span over species)
Text: (§1) 6 standard strains and 3 clinical isolates were used to the preliminary evaluation of in vitro antibacterial activities of oxazolidinone-fluoroquinolone hybrids. For the further evaluation of hybrids OBP-4 and OBP-5, 263 clinical isolates including S. aureus (46), S. haemolyticus(32), S. epidermidis (10), E. faecalis (72), E. faecium (47), S. pneumoniae (13), H. parasuis (34), S. suis (9), and 8 resistant strains including MRSA, MRSE, CIP-resistant S. aureus and S. haemolyticus, VAN and quinolone-resistant S. pneumoniae, LZD-resistant E. faecalis, LZD/VAN and quinolone-resistant E. faecium were collected and tested.
Susceptibility testing of oxazolidinone-fluoroquinolone hybrids against various bacteria was performed by the broth microdilution method as outlined by the Clinical and Laboratory Standards Institute (CLSI). Three types of media, including cation-adjusted Mueller Hinton broth, Haemophilus Test Medium and cation-adjusted Mueller Hinton broth that contained 3%–5% lysed horse blood, were used to culture the corresponding bacteria. All compounds including comparator drugs were dissolved in an appropriate solvent at a concentration of 2.048 mg/mL and then serially diluted two-fold to provide the required concentrations. A final inoculum of 5 × 10^5 CFU/mL was used and plates were read after incubation for 16–24 h at 35 °C. […] Standard quality control strains (ATCC) were included throughout. Each determination was repeated in triplicate.

[1] = system: other resistant organisms in the test; test: MIC summary, resistant organisms other than MRSA and MRSE; assay type: cell-based; settings: resistant strains other than MRSA and MRSE; read-out: MICs values against other resistant organisms
Text: as §1
Susceptibility testing of oxazolidinone-fluoroquinolone hybrids against various bacteria was performed by the broth microdilution method as outlined by the Clinical and Laboratory Standards Institute (CLSI). Three types of media, including cation-adjusted Mueller Hinton broth, Haemophilus Test Medium and cation-adjusted Mueller Hinton broth that contained 3%–5% lysed horse blood, were used to culture the corresponding bacteria. All compounds including comparator drugs were dissolved in an appropriate solvent at a concentration of 2.048 mg/mL and then serially diluted two-fold to provide the required concentrations. A final inoculum of 5 × 10^5 CFU/mL was used and plates were read after incubation for 16–24 h at 35 °C. […]

T2 sequence (P20083 whole entry): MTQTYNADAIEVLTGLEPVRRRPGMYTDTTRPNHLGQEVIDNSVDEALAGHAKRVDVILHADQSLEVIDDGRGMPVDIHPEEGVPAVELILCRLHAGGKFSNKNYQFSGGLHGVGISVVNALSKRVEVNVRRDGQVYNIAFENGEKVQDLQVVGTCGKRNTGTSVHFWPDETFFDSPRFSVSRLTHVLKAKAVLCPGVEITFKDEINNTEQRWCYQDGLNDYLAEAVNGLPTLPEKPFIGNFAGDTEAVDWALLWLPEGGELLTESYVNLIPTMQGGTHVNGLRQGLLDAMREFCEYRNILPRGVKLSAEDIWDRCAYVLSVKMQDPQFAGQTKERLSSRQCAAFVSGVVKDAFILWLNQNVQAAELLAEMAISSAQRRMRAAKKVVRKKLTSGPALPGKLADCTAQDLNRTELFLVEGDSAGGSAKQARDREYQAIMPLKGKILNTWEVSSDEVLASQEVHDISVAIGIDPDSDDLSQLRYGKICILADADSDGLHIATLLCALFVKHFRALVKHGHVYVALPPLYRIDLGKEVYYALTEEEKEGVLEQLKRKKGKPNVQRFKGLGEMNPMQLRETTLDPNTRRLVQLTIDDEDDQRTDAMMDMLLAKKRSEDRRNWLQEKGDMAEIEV
T2 sequence (P0AFI2 whole entry): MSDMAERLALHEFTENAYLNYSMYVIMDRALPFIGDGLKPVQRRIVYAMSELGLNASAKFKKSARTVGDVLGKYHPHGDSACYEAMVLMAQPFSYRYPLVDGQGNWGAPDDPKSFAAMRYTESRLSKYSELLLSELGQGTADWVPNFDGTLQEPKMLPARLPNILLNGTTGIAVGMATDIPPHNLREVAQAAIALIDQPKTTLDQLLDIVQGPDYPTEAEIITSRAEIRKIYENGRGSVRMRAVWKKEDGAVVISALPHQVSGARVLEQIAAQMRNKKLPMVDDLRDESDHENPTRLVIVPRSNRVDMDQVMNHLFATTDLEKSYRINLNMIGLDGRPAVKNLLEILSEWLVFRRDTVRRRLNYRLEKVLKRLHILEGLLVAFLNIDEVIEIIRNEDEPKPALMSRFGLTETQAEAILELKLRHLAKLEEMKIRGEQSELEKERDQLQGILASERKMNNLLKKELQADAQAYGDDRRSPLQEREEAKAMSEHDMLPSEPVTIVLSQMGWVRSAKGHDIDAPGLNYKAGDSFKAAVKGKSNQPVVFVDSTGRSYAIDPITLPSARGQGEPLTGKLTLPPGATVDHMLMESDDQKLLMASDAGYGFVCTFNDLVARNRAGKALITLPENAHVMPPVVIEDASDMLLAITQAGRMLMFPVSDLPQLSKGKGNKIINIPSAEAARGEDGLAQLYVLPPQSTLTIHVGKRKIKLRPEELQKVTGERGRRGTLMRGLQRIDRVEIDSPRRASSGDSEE
T1 sequence (P0AES4 whole entry, one chain of several): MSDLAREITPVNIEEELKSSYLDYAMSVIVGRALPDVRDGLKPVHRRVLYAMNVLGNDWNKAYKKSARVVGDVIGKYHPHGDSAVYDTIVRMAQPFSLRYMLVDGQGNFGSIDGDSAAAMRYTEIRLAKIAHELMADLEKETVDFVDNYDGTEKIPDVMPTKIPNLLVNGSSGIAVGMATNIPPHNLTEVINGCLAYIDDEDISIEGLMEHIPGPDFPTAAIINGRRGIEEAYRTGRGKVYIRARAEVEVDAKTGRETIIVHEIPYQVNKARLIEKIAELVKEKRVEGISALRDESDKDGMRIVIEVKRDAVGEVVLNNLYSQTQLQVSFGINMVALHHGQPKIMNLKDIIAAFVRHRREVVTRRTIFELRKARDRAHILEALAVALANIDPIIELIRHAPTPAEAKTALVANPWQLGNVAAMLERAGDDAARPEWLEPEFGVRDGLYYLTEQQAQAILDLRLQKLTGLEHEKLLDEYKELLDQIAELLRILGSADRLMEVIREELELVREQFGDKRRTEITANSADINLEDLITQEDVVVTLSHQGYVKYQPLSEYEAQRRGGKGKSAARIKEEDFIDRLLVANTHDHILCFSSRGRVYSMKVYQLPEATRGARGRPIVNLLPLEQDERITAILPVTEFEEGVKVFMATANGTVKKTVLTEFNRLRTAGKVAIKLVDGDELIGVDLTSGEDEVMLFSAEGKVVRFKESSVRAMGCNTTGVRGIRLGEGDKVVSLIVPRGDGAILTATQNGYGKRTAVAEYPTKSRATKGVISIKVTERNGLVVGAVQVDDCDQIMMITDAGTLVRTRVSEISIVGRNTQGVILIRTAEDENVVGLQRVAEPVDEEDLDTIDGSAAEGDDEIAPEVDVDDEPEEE

Structure (SMILES) | IC50 (E. coli DNA gyrase) | IC50 (E. coli Topo IV) | MIC90 (Gram-positive isolates) | MIC [1] | fold greater activity than OBP-4, overall (Gram-positive isolates; tested clinical isolates)
C[C@H]1CCc2c(N3CCC(O)(COc4ccc(N5C[C@H](CO)OC5=O)cc4F)CC3)c(F)cc3c(=O)c(C(=O)O)cn1c23 [OBP-4] | 1 to 5 µM | 10 to 15 µM | 0.125 to 0.25 µg/mL (≈ 0.208 to 0.417 µM) | 0.0625 to 1 µg/mL (≈ 0.104 to 1.67 µM) | –
CC1Sc2c(C(=O)O)c(=O)c3cc(F)c(N4CCC(O)(COc5ccc(N6C[C@H](CO)OC6=O)cc5F)CC4)cc3n21 (stereo partly drawn) [OBP-5] | 20 µM | > 40 µM | 0.0625 to 0.25 µg/mL (≈ 0.104 to 0.414 µM) | 0.0625 to 1 µg/mL (≈ 0.104 to 1.66 µM) | 2 fold
